From EP1902732A1, “PROPHYLACTIC/THERAPEUTIC AGENT FOR HER2-EXPRESSING CANCER” (Takeda Pharmaceutical Company Limited, priority 2005, dated 2006) come the findings set out here.

For assay [1], the system named is MDA-MB-231 breast cancer cell. Nature of the assay: Viable cell count using Cell Counting Kit-F. Type of assay: cell-based. Particulars: five days of culture. As to the method:
(§1) BT-474 breast cancer cell, MDA-MB-453 breast cancer cell, A549 non-small cell lung cancer cell and LNCaP prostate cancer cell were used as human HER2-expressing cells while MDA-MB-231 breast cancer cell and A498 kidney cancer cell (all purchased from ATCC) were used as HER2-nonexpressing cells. Each of the cells used had been seeded into a 96-plate at 500cells/150 µL/well and cultured overnight. Each of the compounds, i.e., antimycin (final concentrations: 1, 0.1, 0.01 and 0.001 µmol/L), 2,4-dinitrophenol (final concentrations: 0.6, 0.2, 0.06 and 0.02 mmol/L), metformin (final concentrations: 25, 5, 1 and 0.2 mmol/L) and AICAR (final concentrations: 25, 5, 1 and 0.2 mmol/L) was diluted with a medium and added for 50 µL/well at a time to the final concentrations mentioned above. Following five days of culture at 37°C in 5% CO2, the cells were counted using Cell Counting Kit-F (Dojindo Laboratories).
(§2) Viable cell count using Cell Counting Kit-F was carried out by the following method according to the attached instruction. The supernatant was removed from the 96-well plate after five days of culture. Cell Counting Kit-F diluted 1000-fold with an RPMI medium (phenol red-free, serum-free) was added for 100 µL/well at a time. After 30 minutes of reaction at room temperature, fluorescence (excitation wavelength; 480 nm, fluorescent wavelength; 530 nm) was determined with a fluorescent plate reader.
(§3) From the determination results, percentage of the fluorescence level in the wells added with the compound was determined assuming that the fluorescence level in the wells without the addition of the compound (control) is 100%, and the remaining cellular quantity was determined in % with respect to that of the control.
(§4) BT-474 breast cancer cell, MDA-MB-453 breast cancer cell and LNCaP prostate cancer cell were used as human HER2-expressing cells while MDA-MB-231 breast cancer cell and A498 kidney cancer cell (all purchased from ATCC) were used as HER2-nonexpressing cells. Each of the cells used had been seeded into a 96-well plate at 500 cells/150 µL/well and cultured overnight. Troglitazone (final concentrations: 25, 6.25 and 1.56 µmol/L) was diluted with a medium, and added for 50 µL/well at a time to the final concentrations mentioned above. Following five days of culture at 37°C in 5% CO2, the cells were counted using Cell Counting Kit-F (Dojindo Laboratories).
(§5) From the determination results, percentage of the fluorescence level in the wells added with troglitazone was determined assuming that the fluorescence level in the wells without the addition of troglitazone (control) is 100%, and the remaining cellular quantity was determined in % with respect to that of the control.
For orientation: Tetrazolium dyes change colour on reduction, which living cells bring about.

The subject of the next assay is A498 kidney cancer cell. Nature of the assay: Viable cell count using Cell Counting Kit-F. Type of assay: cell-based. The conditions noted are these: five days of culture. How it is done:
as §1, §2, §3, §4, §5

The test system of another assay is DU145. In words: Viable cell count using Cell Counting Kit-F. The assay is classed as cell-based. Particulars: HER2-nonexpressing cancer, five days of culture.
The test system of assay [2] is MDA-MB-453 breast cancer cell. Nature of the assay: Viable cell count using Cell Counting Kit-F. Type of assay: cell-based, human. Particulars: five days of culture. How it is done:
as §1, §2, §3, §4, §5

In assay [3] the test system is LNCaP prostate cancer cell. In words: Viable cell count using Cell Counting Kit-F. The assay is classed as cell-based, human. Particulars: five days of culture. How it is done: as §1, §2, §3, §4, §5
Assay [4] has as its system BT-474 breast cancer cell. In words: Viable cell count using Cell Counting Kit-F. Type of assay: cell-based, human. The conditions noted are these: five days of culture. As to the method: as §1, §2, §3, §4, §5
In assay [5] the test system is A549 non-small cell lung cancer cell. In words: Viable cell count using Cell Counting Kit-F. Type of assay: cell-based, human. Particulars: HER2-expressing cancer, five days of culture. As to the method: as §1, §2, §3
In a further assay the test system is HER2. In words: Western blotting of phosphorylated HER2 in BT-474 cells. The assay is classed as cell-based, human. How it is done:
(§6) Human HER2-expressing human breast cancer cell line BT-474 (purchased from American Tissue Culture Collection (ATCC)) was seeded into a 24-multiwell plate (BT-474: 1.2 x 10^5 cells/well), and cultured overnight in a carbon dioxide gas incubator (5% CO2, 37°C). A 4-fold dilution series of a mitochondrial respiratory chain complex inhibiting compound (complex I: rotenone, complex III: antimycin, complex V: oligomycin: Wako Pure Chemical Industries) was added starting from a final concentration of 1 µmol/L in 5 steps while continuing culture. After 2 hours, the broth was removed, and the cells were lysed with an SDS sample buffer (200 µL). Western blotting analysis was performed as follows. Specifically, this cell lysate (8 µL) was separated by an SDS-PAGE method (gel concentration: 7.5-15%) (Analytical Biochemistry, No. 166, pp. 368-379, 1987), and transferred to a nitrocellulose membrane (BioRad). Then, an antibody specific to phosphorylated HER2 (Cell signaling technology, Code# 2244), an anti-phosphorylated Akt antibody specific to downstream antiapoptotic signal transducing molecule Akt (Cell signaling technology, Code# 9271) and an anti-phosphorylated MAPK antibody specific to downstream proliferation signal transducing molecule MAPK (Cell signaling technology, Code# 9101) were used to detect the antibody with an ECL system (Amersham) to quantify the amount of phosphorylated protein by an image analysis.
(§7) Human HER2-expressing human cancer cell line BT-474 (purchased from ATCC) was seeded into a 24-multiwell plate (1.2 x 10^5 cells/well) and cultured overnight in a carbon dioxide gas incubator (20% O2, 5% CO2, 37°C). A 3-fold dilution series of metformin that activates AMPK (The Journal of Biological Chemistry, Vol. 279, No. 42, pp. 43940-43951, 2004) was added starting from a final concentration of 15 mmol/L in 5 steps while continuing culture. Two hours later, the broth was removed and the cells were lysed with an SDS sample buffer (200 µL). This cell lysate (8 µL) was separated by an SDS-PAGE method (gel concentration: 7.5-15%) (Analytical Biochemistry, No. 166, pp. 368-379, 1987). Then, western blotting analysis was performed in the same manner as in Example 1 to quantify phosphorylated HER2, phosphorylated Akt and phosphorylated MAPK.
Human HER2-expressing human breast cancer cell line BT-474 (purchased from American Tissue Culture Collection (ATCC)) was seeded into a 24-multiwell plate (BT-474: 1.2 x 10^5 cells/well), and cultured overnight in a carbon dioxide gas incubator (5% CO2, 37°C). Mitochondrial respiratory chain complex 1-inhibiting compound rotenone (Wako Pure Chemical Industries) was added in 5 steps at final concentrations of 1, 0.333, 0.111, 0.033 and 0.011 µmol/L while continuing culture. Two hours later, the broth was removed and the cells were lysed with an SDS sample buffer (200 µL). Then, this cell lysate was used to perform western blotting analysis. Specifically, this cell lysate (8 µL) was separated by an SDS-PAGE method (gel concentration: 7.5-15%) (Analytical Biochemistry, No. 166, pp. 368-379, 1987) and transferred to a nitrocellulose membrane (BioRad). Then, an antibody specific to phosphorylated HER2 (Cell signaling technology, Code# 2244), an AMPK antibody specific to AMPK (Cell signaling technology, Code# 2535) and an anti-phosphorylated AMPK antibody specific to phosphorylated AMPK (Cell signaling technology, Code# 2532) were used to detect the antibody by chemiluminescent detection with an ECL system (Amersham) to quantify an amount of phosphorylated protein with LAS-1000 plus image analysis device (FUJIFILM).
Human HER2-expressing human breast cancer cell line BT-474 (purchased from American Tissue Culture Collection (ATCC)) was seeded into a 24-multiwell plate (BT-474: 1.2 x 10^5 cells/well) and cultured overnight in a carbon dioxide gas incubator (5% CO2, 37°C). […]

The subject of the next assay is MAPK. Nature of the assay: Western blotting of phosphorylated MAPK in BT-474 cells. The assay is classed as cell-based, human. As to the method:
as §6, §7
On the technique in general: A western blot detects proteins with antibodies after separation by electrophoresis.

In a further assay the test system is Akt. In words: Western blotting of phosphorylated Akt in BT-474 cells. The assay is classed as cell-based, human. As to the method:
as §6, §7

For assay [6], the system named is phosphorylated acetyl-CoA carboxylase (ACC). In words: Western blotting of phosphorylated ACC in BT-474 cells. Particulars: Example 7, two hours, antimycin 1-0.01 nmol/L, oligomycin 100-1 ng/mL, 2,4-dinitrophenol 300-3 µmol/L. Type of assay: cell-based, human. How it is done: (§8) Human HER2-expressing human breast cancer cell line BT-474 (purchased from American Tissue Culture Collection (ATCC)) was seeded into a 24-multiwell plate (BT-474: 1.2 x 10^5 cells/well) and cultured overnight in a carbon dioxide gas incubator (5% CO2, 37°C). As an energy metabolism inhibitor having a mechanism that differed from that of rotenone, mitochondrial respiratory chain complex III-inhibiting compound antimycin (Wako Pure Chemical Industries) was added to final concentrations of 1, 0.3, 0.1, 0.03 and 0.01 nmol/L while continuing culture. Using another plate, mitochondrial respiratory chain complex V-inhibiting compound oligomycin (Wako Pure Chemical Industries) was added to final concentrations of 100, 30, 10, 3 and 1 ng/mL while continuing culture. In addition, 2,4-dinitrophenol was added to 300, 100, 30, 10 and 3 µmol/L while continuing culture. Two hours after the addition of the agent, the broth was removed and the cells were lysed with an SDS sample buffer (200 µL). Then, this cell lysate was used to perform western blotting analysis. Specifically, this cell lysate (8 µL) was separated by an SDS-PAGE method (gel concentration: 7.5-15%) (Analytical Biochemistry, No. 166, pp. 368-379, 1987) and transferred onto a nitrocellulose membrane (BioRad). Then, an antibody specific to phosphorylated HER2 (Cell signaling technology, Code# 2244), pACC antibody specific to phosphorylated acetyl-CoA carboxylase (ACC) (Cell signaling technology, Code# 3661) and anti-phosphorylated S6K antibody specific to phosphorylated S6 kinase (S6K) (Cell signaling technology, Code# 9209) were used to detect the antibody by chemiluminescent detection with an ECL system (Amersham) to quantify an amount of phosphorylated protein with LAS-1000 plus image analysis device (FUJIFILM).

Assay [7] concerns phosphorylated S6 kinase (S6K). In words: Western blotting of phosphorylated S6K in BT-474 cells. Type of assay: cell-based, human. The conditions noted are these: Example 7, two hours, antimycin 1-0.01 nmol/L, oligomycin 100-1 ng/mL, 2,4-dinitrophenol 300-3 µmol/L. How it is done: as §8
Setting [8] is: Example 5, 3-fold dilution series from 15 mmol/L in 5 steps, two hours.
Where [9] appears, read: Example 2, 4-fold dilution series from 1 µmol/L in 5 steps, 2 hours.

Bounds are passed on as bounds.

With `CN(C)C(=N)N=C(N)N` [metformin], the “minimum concentrations for inhibiting cell proliferation for 50% or more” value in assay [1] (MB231, HER2-nonexpressing cancer) is >25 mmol/L; with A498 kidney cancer cell (A498, HER2-nonexpressing cancer), >25 mmol/L; with DU145, >25 mmol/L; in assay [2] (MB453, HER2-expressing cancer), 1 mmol/L; in assay [3] (LNCaP, HER2-expressing cancer) it was 1 mmol/L; in [4] (BT474, HER2-expressing cancer), 1 mmol/L. Besides, the “minimum concentrations for inhibiting cell proliferation for 50% or more” value in [5] was found to be 5 mmol/L. The HER2 phosphorylation result in the assay on HER2 (setting [8]) is listed as “concentration-dependent suppression of HER2 phosphorylation”. In addition, in the assay on MAPK (setting [8]), the MAPK phosphorylation result is “suppressions of Akt and MAPK phosphorylations were also confirmed”. The Akt phosphorylation entry in the assay with Akt (setting [8]) was “suppressions of Akt and MAPK phosphorylations were also confirmed”.
Regarding `CC[C@H]1/C=C/C=C/C[C@@H](C)[C@H](O)[C@@](C)(O)C(=O)[C@@H](C)[C@H](O)[C@@H](C)C(=O)[C@@H](C)[C@H](O)[C@@H](C)/C=C/C(=O)O[C@@H]2[C@H](C)[C@H](CC1)O[C@]1(CC[C@H](C)[C@H](C[C@@H](C)O)O1)[C@H]2C` [oligomycin], in assay [6], the “phosphorylation of ACC” value is “increased dose-dependently”. Moreover, the HER2 phosphorylation entry in the assay on HER2 (setting [9]) was “suppression of HER2 phosphorylation was confirmed”; in the assay with HER2 (Example 7, two hours, antimycin 1-0.01 nmol/L, oligomycin 100-1 ng/mL, 2,4-dinitrophenol 300-3 µmol/L), “decreased dose-dependently”. Also, in the assay with MAPK (setting [9]), the MAPK phosphorylation entry was “suppressions of Akt and MAPK phosphorylations were also confirmed”. Besides, the “phosphorylation of S6K” value in assay [7] is recorded as “suppressed”. In the assay on Akt (setting [9]), the Akt phosphorylation result is “suppressions of Akt and MAPK phosphorylations were also confirmed”.
For the compound `Cc1c(C)c2c(c(C)c1O)CCC(C)(COc1ccc(CC3SC(=O)NC3=O)cc1)O2` (stereo not drawn) [troglitazone], the inhibition at 25 µM amounted to 100% in assay [1] (Homo sapiens, 120 h, MDA-MB-231 cell, HER2-nonexpressing, 25 µmol/L, read-out: proliferation inhibited to (remaining cellular quantity in % with respect to that of the control)); 105% with A498 kidney cancer cell (Homo sapiens, 120 h, A498 cell, HER2-nonexpressing, 25 µmol/L, read-out: proliferation inhibited to (remaining cellular quantity in % with respect to that of the control)); 25% in assay [2] (Homo sapiens, MDA-MB-453, 120 h, MB453 cell, 25 µmol/L, read-out: proliferation inhibited to (remaining cellular quantity in % with respect to that of the control)); 48% in assay [3] (Homo sapiens, 120 h, LNCaP cell, 25 µmol/L, read-out: proliferation inhibited to (remaining cellular quantity in % with respect to that of the control)); 50% in assay [4] (Homo sapiens, BT-474, 120 h, BT474 cell, 25 µmol/L, read-out: proliferation inhibited to (remaining cellular quantity in % with respect to that of the control)).
